Assay results reported in patent US10064890B2, “Amorphous calcium carbonate for the treatment of calcium malabsorption and metabolic bone disorders” (AMORPHICAL LTD, priority 2011, dated 2018).
Structures can show the parent of a compound that is named as a salt. Marks after values point to notes of the source that are not given here.

Columns and labels:
[1] = Trial 1: serum calcium pharmacokinetics after single oral capsule of 45Ca-labeled calcium carbonate; set-up: species or system Wistar rats; conditions: rat, in vivo
Method: (§1) Twenty-six 2 month-old male Wistar rats, weighing 240±15 g, were orally administered with a single gelatin capsule containing either ACC (amorphous calcium carbonate) or CCC (crystalline calcium carbonate) intrinsically labeled with ^45Ca, followed by measurements of calcium fractional absorption in serum and calcium excretion.
All animals were treated according to the Israel Animal Welfare Act under the supervision of the Ben-Gurion University Animal Care and Use program. Fifty-one two month-old male Wistar rats (Harlan-Teklad, Jerusalem, Israel), weighing 240±15 g, were randomly housed in 12 stainless steel cages in an environmentally-controlled room (23° C. temperature, 12:12 h light:dark cycle). The rats were fed laboratory rat chow pellets adequate in nutrients ad libitum (Koffolk, Petah-Tikva, Israel) and had free access to water for 48 h. Four days before the beginning of the experiment, the regular diet was replaced with a low calcium diet containing 0.24±0.05% calcium (0.675±0.05% phosphate), specially prepared by mixing two food types containing, respectively, 0.01% calcium (0.3% phosphate; Harlan-Teklad) and 1% calcium (0.8% phosphate; Koffolk). The two food types were separately ground in a mill to yield two powders which were dry mixed in a ratio of 4:1, respectively, until fine homogenization. The homogenized powder was extruded to form new food pellets.
Seventeen hours prior to capsule administration, the rats were weighed and blood samples were taken (baseline). The rats were then placed into individual metabolic cages and deprived of food and water until 3 h post-capsule administration. Three and 24 h post-dosing, ˜10 g of low calcium food pellets (0.01% calcium; Harlan-Teklad) were given to each rat. Distilled water was allowed ad libitum starting three h post-capsule administration.
Each rat was lightly sedated for 30 seconds with isoflurane (Minrad) diluted 1:4 (v:v) with propylene glycol (BioLab). A single capsule containing a specific calcium carbonate preparation (i.e. CCC, ACC, or ACC-C; n=17 for each group) was administered intragastrically to each of the experimental rats using a stainless steel rat administration syringe (Harvard Apparatus).
Blood samples of […] were taken from each rat's tail vein 17 h prior to capsule administration (time 0) and 2, 3, 6, 10, 24 and 34 h post-administration. The blood samples were immediately centrifuged for 10 minutes at 3000 g using a tabletop centrifuge (Hettich Zentrifugen, Bach, Switzerland). Duplicate samples (30 μl) of the supernatant serum were transferred into plastic vials containing scintillation liquid (Zinsser Analytic, Berkshire, UK) and radioactivity was measured using a liquid scintillation counter (Tri-Carb 2100TR, PerkinElmer, Boston, Mass.). Plasma radioactivity from the given dose were normalized according to the measured radioactivity and specific radioactive dose that each rat received [(serum cpm×100)/(total cpm×sample volume)].
Non-compartmental analysis of an individual rat's calcium concentration versus time data was performed using WinNonLin 5.2 software (Pharsight, Mountain View, Calif.).

[2] = Trial 1: calcium retention (intake minus feces and urine excretion); format: in vivo, Wistar rats; conditions: 34 h feces and urine collection, rats
Method: as §1
Feces and urine were collected during the 17 h starvation phase during the acclimation period (baseline) and during the entire 34 h of the experiment to evaluate calcium. Samples of urine (500 μL) were transferred into plastic vials filled with scintillation liquid. Feces were dried overnight at 70° C. in an oven. The samples were ground in a mortar until fine homogenization. Feces samples (200 mg) were placed into 5 ml of 1 N NaOH solution (Gadot, Netanya, Israel), incubated for 3 hours at 80° C. and centrifuged for 10 minutes at 3,600 g. Duplicate samples of the supernatant (30 μL) were transferred into plastic vials containing scintillation liquid. Radioactivity of the urine and feces samples was measured using a liquid scintillation counter. Retention values were calculated by subtracting the radioactivity measured in the feces and urine from the given dose […].

[3] = tested on: ovariectomized (OVX) rat model; assay: Trial 6: micro-CT of distal femur and 4th lumbar vertebra, ACC with or without alendronate; format: in vivo, Sprague Dawley rats; conditions: for SMI / TBPf / Tb. N / Tb. Sp / Tb. Th: OVX rats, 4 months treatment
Method: The inventors have conducted a study aiming to evaluate the effects of Amorphous Calcium Carbonate (ACC) on bone mineral density and bone fraction in metabolic bone disorders, and specifically osteoporosis as presented in the ovariectomized (OVX) rat model wherein the ACC is administered in combination with a standard medication for osteoporosis. In the present trial, five groups of rats were tested (4 OVX and 1 sham). Following operation, all rats were left untreated (fed with standard laboratory diet) to develop osteopenia for a period of 2 months. […] In addition, the animals were i.v injected (3 times/week) with either saline or 2 μg/kg alendronate (ALN) according to their group assignment, as described in Table 16.
A CCC mix containing 1% elemental calcium from crystalline calcium carbonate (Socal® Precipitated Calcium Carbonate), and an ACC mix containing 1% elemental calcium from stable amorphous calcium carbonate (containing 1% phosphoserine and 2% Citrate; Amorphical Ltd., Beer-Sheva, Israel).
Following 2 months, rats started treatment according to their assignment as described in Table 16 for a period of 4 months. […] Food consumption and body weight were recorded weekly (Table 17). At the end of the treatment period, all rats were sacrificed by CO2.

[4] = tested on: ovariectomized (OVX) rat model; assay: Trial 7: histomorphometry of un-decalcified proximal tibia sections; format: in vivo, Sprague Dawley rats; conditions: for BFR/BS / MAR / MS/BS: dynamic (calcein); for BFR/BS / MAR / MS/BS / BV/TV / Tb. N / Tb. Sp / Tb. Th: OVX rats; for BV/TV / Tb. N / Tb. Sp / Tb. Th: structural, 90 days
Method: (§2) All rats were sacrificed by CO2.
Right tibias were removed from the formaldehyde solution and dehydrated through an ethanol gradient, cleared using xylene (24250521, Bio-Lab Ltd. Haifa, Israel), and infiltrated with 80% methylmethacrylate (MMA; M5599, Sigma Aldrich, Rehovot, Israel)+20% dibutyl phthalate (DBP; 61-5062, Merck Ltd, Hohenbrunn, Germany) for 3 days at 4° C. Specimens were then transferred to MMA+DBP+Benozoyl peroxide (617008, Merck Ltd, Hohenbrunn, Germany) solution for another 6 days infiltration at 4° C. Following infiltration procedure, specimens were embedded in MMA+DBP+2.5% Benozoyl peroxide under a temperature gradient (from 38° C. to 50° C. over a period of 4 days). Mid-sagittal (4 μm) un-decalcified sections from each specimen were cut using a Lecia RM 2025 microtome (Lecia Instruments Ltd, Petach Tikva, Israel) connected to tungsten carbide knifes (Disposable blade; TC65, Rhenium Inc. Bet-Nekufa, Israel). Most sections were stained with McNeal's tetrachrome for structural histomorphometry. The remaining sections were left unstained for dynamic histomorphometry.
Measurement of both structural and dynamic histomorphometry of the proximal tibia metaphisyes were obtained using a semi-automatic analysis system (Bioquant OSTEO, ver. 7.20.10, BIOQUANT Image Analysis Corporation Nashville, USA) which is connected to a microscope (Nikon Optiphot 2, Kingston, England) equipped with fluorescent light source.

[5] = tested on: ovariectomized (OVX) rat model; assay: Trial 7: bone turnover biochemical markers (urine DPD, serum OC) by EIA; format: in vivo, Sprague Dawley rats; conditions: day 90, OVX rats
Method: as §2
Serum Osteocalcin (OC) concentration was determined by EIA kit (#BT-490, Biomedical Technologies Inc. Stoughtone, USA) following a 1:10 serum dilution.
Urinary Deoxypyridinoline (DPD) concentration was determined by commercial EIA kit (#8007, Qudiel Inc. San Diego, USA) following a 1:50 dilution. DPD levels were normalized to Creatinine levels (#8009, Qudiel Inc. San Diego, USA).

[6] = tested on: ovariectomized (OVX) rat model; assay: Trial 7: mechanical strength of the 5th lumbar vertebra (compression test); format: in vivo, Sprague Dawley rats
Method: as §2
Mechanical properties (Ultimate force, Energy to ultimate force, Toughness and Energy to yield) were obtained from the compression tests of 5th lumbar vertebral body (L5). Calculation of the material properties were performed by measuring the height of the vertebral body and the average of caudal and cranial diameters using a caliper. Cross sectional area (CSA) and bone volume (BV) were obtained by μCT scanning that covered the entire bone including both trabecular and cortical shell.

[7] = tested on: ovariectomized (OVX) rat model; assay: Trial 7: micro-CT of distal femur and 4th lumbar vertebra; conditions: for Tb. N / Tb. Sp / Tb. Th: OVX rats, 90 days; for DA: sham group lower than the OVX group by / SMI: sham group lower than the OVX group by / TBPf: sham group lower than the OVX group by: 4th-lumbar vertebra, difference from sham; for trabecular bone region in μCT three-dimensional reconstruction: distal femur and 4th vertebra, FIG. 7, in comparison to the Sham; for trabecular femoral BMD: Sham group higher compared to the OVX group by: femur, difference from Sham
Method: In the study, five groups of rats were tested (4 ovariectomized and 1 sham). The OVX animals were fed with special food mixtures in the form of pellets from four different calcium sources: commercial crystalline calcium carbonate served as control (mix A), natural ACC (Gastrolith powder) (mix B), synthetic ACC (comprising trace amounts of phospho-serine) (mix C), and commercial crystalline calcium citrate (mix D). Sham group was administrated with the same food as the control. Pellets from all four mixtures contained ˜0.5% elemental calcium as confirmed by atomic absorption apparatus (Varian AA240, Palo Alto, Calif., USA) and described in Table 19 with no added vitamin D, except for the amounts found in the original food pellets (22 IU vitamin D/g).
For the administration of the different calcium sources, special food pellets containing were prepared. Low calcium rodent pellets containing 0.02% calcium (Rat chow #TD95027 Harlan Inc., Jerusalem, Israel) was finely grounded and separately mixed with four different calcium sources. […] Every mix was separately pelleted and kept in a sealed bag at room temperature.
Rats were randomly assigned and operated according to their assigned five groups: Sham (sham-Ovariectomized) fed with mix A, and four other groups were ovariectomized (OVX) using a bilateral dorsal approach according to Lasota and Danowska-Klonowska (2004) Rocz Akad Med Bialymst 49 Suppl 1:129-131, and divided to OVX Control (fed with mix A), OVX Gast (fed with mix B), OVX ACC (fed with mix C) and OVX Citrate (fed with mix D). Following operation, rats were provided a 7 days recovery period under the same conditions as the acclimation period, standard laboratory diet ad-libitum and de-ionized water containing 1.5 ml/400 ml Dipyrone (Vitamed Ltd, Binyamina, Israel), and 1 mg/kg Enrofloxacin (Buyer Ltd. Leverkusen, Germany).
At the end of the recovery period the rats were group-housed in 47 cages (2 rats/cage) according to the group assignment, under the same controlled room conditions as described above. The assigned supplemental pellets and de-ionized water were provided ad-libitum during the entire treatment period (90 days). […] For dynamic histomorphometric analysis fluorochrom dye Calcein (20 mg/kg body mass; Sigma-Aldrich, Israel) was IP injected to all rats at days 76 and 86. On day 90, rats were individually housed in metabolic cages and deprived from food and water for 18 h. Urine was collected from each metabolic funnel and was stored at −80° C. for future analysis of bone resorption biochemical marker at end of the experiment (Time 90). Immediately after urine sampling, serum samples were extracted for evaluation of formation biochemical marker of day 90 and stored in the same manner as described at day 0. All rats were sacrificed by CO2. Right femurs and 4th lumbar vertebras were dissected, wrapped with gaze pads soaked with saline buffer and kept in −80° C. for measurement of bone micro-CT scan. The 5th lumbar vertebras were stored in the same conditions as the right femurs for mechanical testing. Right tibias were dissected and placed immediately for 24 h at 4° C. in 3.7% formaldehyde solution (F1636, Sigma-Aldrich, Israel) for structural and dynamic histomorphometric measurements.
Trabecular and cortical bone microarchitecture of right femurs and 4th lumbar vertebras were analyzed using a μCT scanner (Skyscan 1174, Kartuizersweg Kontich, Belgium).

Compound	AUC∞ [1]	Cmax [1]	Tmax [1]	trabecular bone fraction and condensed trabeculas values lower compared to the Sham (average) [4] [%]	trabecular separation higher in comparison to Sham [4] [%]	BFR/BS [4]	MAR [4] [μm/day]	MS/BS [4]	BV/TV [4]	Tb. N [4]	Tb. Sp [4]	Tb. Th [4]	DPD (urine deoxypyridinoline resorption marker) [5]	OC (serum osteocalcin formation marker) [5]	mechanical strength properties lower in comparison to Sham (average) [6] [%]	Tb. N ([7]; 4th lumbar vertebra)	Tb. Sp ([7]; 4th lumbar vertebra)	Tb. Th ([7]; 4th lumbar vertebra) [μm]	DA: sham group lower than the OVX group by [7] [%]	SMI: sham group lower than the OVX group by [7] [%]	further results
O=C([O-])[O-].[Ca+2] [CCC, crystalline calcium carbonate]	109.7 ± 6.4 ^a μg × h/mL	5.8 ± 0.07 ^a μg/mL	3.0 ± 0.3 ^a h																		retention of the received dose [2]: 48.5±1.3%; SMI ([3]; 4th lumbar vertebra): 1.62; TBPf ([3]; 4th lumbar vertebra): 8.5 mm^−1; Tb. N ([3]; 4th lumbar vertebra): 1.75 mm^−1; Tb. Sp ([3]; 4th lumbar vertebra): 374 μm; Tb. Th ([3]; 4th lumbar vertebra): 98.4 μm; trabecular bone region in μCT three-dimensional reconstruction ([3]; distal femur and 4th vertebra, FIG. 5, compared to CCC / third group): lowest trabecular bone region; SMI ([3]; distal femur metaphysis): 1.66; TBPf ([3]; distal femur metaphysis): 7.6 mm^−1; Tb. N ([3]; distal femur metaphysis): 1.5 mm^−1; Tb. Sp ([3]; distal femur metaphysis): 682 μm; Tb. Th ([3]; distal femur metaphysis): 110 μm
O=C(O)CC(O)(CC(=O)O)C(=O)O [Citrate, calcium citrate]				55	148	0.159^a μm^2/μm/day	1.40	8.25^a %	12.8^b %	2.3^b mm^−1	318^b μm	53^b μm	43.55^e nmol/mmol Cr	15.7^a ng/ml	40	1.59^b mm^−1	262^b μm	86.6	22	43	trabecular thickness higher compared to Control [4]: 13%; MS/BS lower from the ACC group ([4]; Citrate vs ACC): 26%; bone formation rate lower from ACC ([4]; Citrate vs ACC): 26%; MS/BS lower from the Gast group ([4]; Citrate vs Gast): 29%; bone formation rate lower from Gast ([4]; Citrate vs Gast): 28%; TBPf: sham group lower than the OVX group by [7]: 91%; trabecular bone region in μCT three-dimensional reconstruction [7]: lowest trabecular bone region; Tb. N ([7]; distal femur metaphysis): 2.4^b mm^−1; Tb. Sp ([7]; distal femur metaphysis): 226^bd μm; Tb. Th ([7]; distal femur metaphysis): 29.1^b μm; trabecular femoral BMD: Sham group higher compared to the OVX group by [7]: 63%; trabecular bone fraction and its number, Citrate compared with Control ([7]; micro-CT): No significant differences
O=C([O-])[O-].[Ca+2] [Control, calcium carbonate]				55	130	0.164^a μm^2/μm/day	1.30	8.31^a %	12.8^b %	2.5^b mm^−1	296^b μm	47.1^a μm	36.65^be nmol/mmol Cr	14.8^a ng/ml	41	1.57^b mm^−1	254^b μm	87.5	22	43	TBPf: sham group lower than the OVX group by [7]: 91%; BV/TV and Tb.N lower on average in comparison to the Sham ([7]; distal femur): 65%; trabecular bone region in μCT three-dimensional reconstruction [7]: lowest trabecular bone region; Tb. N ([7]; distal femur metaphysis): 2.2^b mm^−1; Tb. Sp ([7]; distal femur metaphysis): 248^b μm; Tb. Th ([7]; distal femur metaphysis): 29.0^b μm; trabecular femoral BMD: Sham group higher compared to the OVX group by [7]: 64%; BV/TV and Tb.N lower on average in comparison to the Sham ([7]; vertebra): 60%
amorphous calcium carbonate [ACC]	134.5 ± 7.0 ^b μg × h/mL	8.1 ± 0.8 ^b μg/mL	2.8 ± 0.2 ^a h																		
